Test results as given in patent publication US20250092030A1, “ENHANCERS OF PARTICULATE GUANYLYL CYCLASE RECEPTOR A” (Mayo Foundation for Medical Education and Research, priority 2023, published 2025).
pEC50: −log10 of the molar value. “And” between values parts separate entries of the source, which are not always exact repeats. Identical values can stand only once. Like-named read-outs stand apart in the source and are kept apart here.

Molecular target: T1, particulate guanylyl cyclase receptor A (pGC-A) (Homo sapiens, UniProt P16066)
T1 construct: expressed in transfected cells; host or cells: HEK293
T1 sequence (P16066 33-1061): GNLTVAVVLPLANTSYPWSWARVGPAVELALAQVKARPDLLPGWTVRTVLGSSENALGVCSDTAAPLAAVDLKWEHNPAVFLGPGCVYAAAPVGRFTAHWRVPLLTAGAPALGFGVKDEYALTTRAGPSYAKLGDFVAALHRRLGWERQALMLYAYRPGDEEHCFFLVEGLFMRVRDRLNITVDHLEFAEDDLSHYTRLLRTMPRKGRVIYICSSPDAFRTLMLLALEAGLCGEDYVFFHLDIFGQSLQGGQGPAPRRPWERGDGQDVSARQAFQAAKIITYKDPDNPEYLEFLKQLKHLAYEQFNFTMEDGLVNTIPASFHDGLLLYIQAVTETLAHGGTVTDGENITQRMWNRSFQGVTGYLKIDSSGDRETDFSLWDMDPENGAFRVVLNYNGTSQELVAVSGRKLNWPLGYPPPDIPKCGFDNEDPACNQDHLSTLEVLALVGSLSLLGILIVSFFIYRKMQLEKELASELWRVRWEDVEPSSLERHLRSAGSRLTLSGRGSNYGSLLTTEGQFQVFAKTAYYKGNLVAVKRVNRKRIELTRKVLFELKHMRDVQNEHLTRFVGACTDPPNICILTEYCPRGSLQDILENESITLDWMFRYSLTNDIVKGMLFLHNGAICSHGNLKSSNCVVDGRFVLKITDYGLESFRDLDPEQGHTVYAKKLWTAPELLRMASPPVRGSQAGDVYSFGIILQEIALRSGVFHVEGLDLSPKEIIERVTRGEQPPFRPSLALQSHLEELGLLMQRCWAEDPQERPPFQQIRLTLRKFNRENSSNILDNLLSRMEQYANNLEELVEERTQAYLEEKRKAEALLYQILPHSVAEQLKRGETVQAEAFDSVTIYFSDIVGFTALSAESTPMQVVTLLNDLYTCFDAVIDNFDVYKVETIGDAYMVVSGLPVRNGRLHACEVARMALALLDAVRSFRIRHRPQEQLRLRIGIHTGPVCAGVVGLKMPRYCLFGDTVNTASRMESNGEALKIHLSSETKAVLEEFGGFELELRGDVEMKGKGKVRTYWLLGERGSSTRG
T1 sequence (P01160 124-151 partner limits assumed): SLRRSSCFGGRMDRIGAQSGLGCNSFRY
Test: cGMP production by HTRF in HEK293 cells overexpressing pGC-A, with ANP
Type: cell-based
Settings: for Emax / Max efficacy: cGMP normalized to maximal amount produced by an EC80 concentration of ANP; for Emax: read-out: Max efficacy; for pEC50: test compound plus EC20 concentration of ANP, cGMP by HTRF
How it was run: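 Suspension cells stimulated 30 min at room temperature with test compound (10 μM stock in DMSO) plus ANP near EC20 in HBSS/5 mM HEPES/0.05% BSA. cGMP quantified by competitive HTRF immunoassay (Eu3+ cryptate anti-cGMP, d2-cGMP), normalized to cGMP from EC80 ANP; EC50 derived with or without ANP.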

[1] = HEK293 cells overexpressing pGC-A
[2] = HEK293, HEK293 cells overexpressing pGC-A

| SMILES | Emax [1] | pEC50 [1] | Max efficacy [1] | Emax [2] |
| --- | --- | --- | --- | --- |
| O=C(Nc1nc2c(F)cc(F)cc2s1)C1CCC2CCC1N2 (stereo not shown) [compound 049] | 98% | 6.52 | – | – |
| CN(C)CCN1CCCC(C(=O)Nc2nc3c(Br)cccc3s2)C1 (stereo not shown) [compound 226] | – | 6.80 and 6.05 | 62% and 87% | – |
| CN1CCCC1CN1CCCC(C(=O)Nc2nc3c(F)cc(F)cc3s2)C1 (stereo not shown) [compound 072] | – | 5.92 and 6.00 | 118% and 94% | – |
| CN(C)C(=O)N1CCCC(C(=O)Nc2nc3c(Cl)cc(F)cc3s2)C1 (stereo not shown) [compound 282] | – | 6.74 | – | 61% |
| O=C(Nc1nc2c(F)cc(F)cc2s1)c1cccc(Cl)c1 [compound 201] | – | < 5.00 | – | – |
| CN(C)CCN1CCCC(C(=O)Nc2nc(-c3ccccc3F)cs2)C1 (stereo not shown) [compound 145] | – | < 5.30 | – | – |
| CN(C)CCN1CCCC(C(=O)Nc2nc(-c3ccc(Cl)cc3)cs2)C1 (stereo not shown) [compound 150] | – | < 5.30 | – | – |
| CN(C)CCN1CCCC(C(=O)Nc2nc3c(Cl)cccc3s2)C1 (stereo not shown) [compound 225] | – | 6.44 | – | 97% |
| O=C(O)CN1CCC(N2CCCC(C(=O)Nc3nc4c(F)cc(F)cc4s3)C2)C1 (stereo not shown) [compound 095] | – | < 5.30 | – | – |
| NCCN1CCCC(C(=O)Nc2nc3c(F)cc(F)cc3s2)C1 (stereo not shown) [compound 236] | – | 6.15 | – | 85% |
| CN(C)CCN[C@H]1CCC[C@H](C(=O)Nc2nc3c(F)cc(F)cc3s2)C1 [compound 209] | – | < 5.30 | – | – |
| CCN1CC(N2CCCC(C(=O)Nc3nc4c(Cl)cc(F)cc4s3)C2)C1 (stereo not shown) [compound 135] | – | 6.96 | – | 85% |
| O=C(Nc1nc2c(F)cc(F)cc2s1)C1CCCN(C2CCNC2)C1 (stereo not shown) [compound 091] | – | 5.89 | – | 72% |
| CN(C)CCC1CCCC(C(=O)Nc2nc3c(Cl)cc(F)cc3s2)C1 (stereo not shown) [compound 215] | – | 6.05 | – | 78% |
| CN(C)CCN1CCCC1C(=O)Nc1nc2c(F)cc(F)cc2s1 (stereo not shown) [compound 053] | – | 6.10 | – | 92% |
| CN(C)CCN1CCCC(C(=O)Nc2nc3c(F)cc(-c4ccccc4)cc3s2)C1 (stereo not shown) [compound 022] | – | < 5.30 | – | – |
| C=CCN1CCC(N2CCCC(C(=O)Nc3nc4c(F)cc(F)cc4s3)C2)C1 (stereo not shown) [compound 092] | – | 7.30 | – | 89% |

| SMILES | Emax [1] | pEC50 [1] | Max efficacy [1] | Emax [2] |
| --- | --- | --- | --- | --- |
| Cc1cccc2nc(NC(=O)C3CCCN(CCN(C)C)C3)sc12 (stereo not shown) [compound 034] | – | 5.23 | – | 99% |
| CN(C)CCN1CCCC(C(=O)Nc2nc3c(Cl)cc(Cl)cc3s2)C1 (stereo not shown) [compound 251] | – | < 5.30 | – | – |
| O=C(Nc1nc2c(F)cc(F)cc2s1)C1CCCN(Cc2ccncc2)C1 (stereo not shown) [compound 110] | – | 6.34 and 5.96 | 78% | 95% |
| N[C@@H]1CCC[C@H](C(=O)Nc2nc3c(F)cc(F)cc3s2)C1 [compound 208] | – | 6.15 | – | – |
| CN(C)CCN1CCCC(NC(=O)c2nc3c(F)cc(F)cc3s2)C1 (stereo not shown) [compound 217] | – | < 5.00 | – | – |
| CCN(C)C(=O)N1CCCC(C(=O)Nc2nc3c(F)cc(F)cc3s2)C1 (stereo not shown) [compound 274] | – | 5.44 and 5.92 | 72% | 62% |
| CN1CCC(N2CCCCC2C(=O)Nc2nc3c(F)cc(F)cc3s2)C1 (stereo not shown) [compound 038] | – | < 5.30 | – | – |
| CN(CCO)CCN1CCCC(C(=O)Nc2nc3c(F)cc(F)cc3s2)C1 (stereo not shown) [compound 242] | – | 6.15 | – | 105% |
| CN(C)CCN1CCCCC(C(=O)Nc2nc3c(F)cc(F)cc3s2)C1 (stereo not shown) [compound 055] | – | 6.22 | – | 89% |
| CN(C)CCN1CCCC(C(=O)Nc2nc3c(F)cccc3s2)C1 (stereo not shown) [compound 224] | – | 5.24 | – | 105% |
| CN1CCCC(N2CCCC(C(=O)Nc3nc4c(F)cc(F)cc4s3)C2)C1 (stereo not shown) [compound 070] | – | – | 71% and 85% | – |
| N[C@@H]1CCC[C@@H](C(=O)Nc2nc3c(F)cc(F)cc3s2)C1 [210T] | – | 6.30 | – | 86% |
| CN(C)CCN1CCCC(C(=O)Nc2nc(-c3cccc(Cl)c3)cs2)C1 (stereo not shown) [compound 149] | – | < 5.30 | – | – |
| COc1ccc(-c2csc(NC(=O)C3CCCN(CCN(C)C)C3)n2)cc1 (stereo not shown) [compound 156] | – | < 5.30 | – | – |
| O=C(Nc1nc2c(F)cc(F)cc2c(=O)[nH]1)C1CCCNC1 (stereo not shown) [compound 183] | – | < 5.30 | – | – |
| CN(C)CCN1CCCC(C(=O)Nc2nc3cccc(Cl)c3s2)C1 (stereo not shown) [compound 033] | – | 5.66 and 5.92 | 63% | 82% |
